The results in this text go back to article PMC6285983, “Novel broad spectrum virucidal molecules against enveloped viruses” (PLoS ONE, 2018).

For one series, the system named is IAV H1N1. As to the kind of experiment: IAV H1N1 inhibition assay on MDCK cells. The conditions noted are these: Influenza A virus.
Series [1] in a line: Cell viability MTS assay, conditions of the HRoV assay. In kind it is cell-based. The conditions noted are these: African green monkey, MA104 cells. The protocol: (§1) Cell viability was measured using the MTS [3- (4,5-dimethylthiazol-2-yl)-5- (3 carboxy methoxy phenyl)-2-(4-sulfophenyl)-2H-tetrazolium] assay. Cell cultures were seeded in 96-well plates and were incubated with different concentrations of compounds in duplicate under the same experimental conditions described for the antiviral assays, (i.e. if the incubation time of the compound on cells was carried for 2 hours and then the evaluation of the antiviral activity was done 72h later, the same timing was used for the cytotoxicity assays, in order to exclude any toxicity effect in the antiviral evaluation). Cell viability was determined using the CellTiter 96 Proliferation Assay Kit (Promega, Madison, WI, USA) according to the manufacturer's instructions. Absorbances were measured using a Microplate Reader (Model 680, BIORAD) at 490 nm. The effect on cell viability at different concentrations of the compound was expressed as a percentage, by comparing absorbances of treated cells with those of cells incubated with culture medium and equal volumes of vehicle. The 50% cytotoxic concentrations (CC50) and 95% confidence intervals (CIs) were determined using Prism software (Graph-Pad Software, San Diego, CA). For compound 9d a continuous incubation of 1, 2, 3 and 4 days on Vero cells was carried in order to evaluate the toxicity after long exposure the results are shown in S1 Fig and Fig 3. […]
(Tetrazolium dyes change colour on reduction, which living cells bring about.)

Another series relates to HPV-16. The series is described as follows: HPV-16 inhibition assay on HeLa cells. It counts as cell-based, HPV-16 pseudovirions. As for the experimental part: (§2) HeLa cells were plated in 96-well plates. […] The GFP-expressing infected cells were observed under an inverted Zeiss LSM510 fluorescence microscope (Zeiss, Oberkochen, Germany) and the percentages of infection were calculated by comparing GFP positive cells in treated and untreated wells.

Series [2] deals with HSV-2 acyclovir resistant strain. The series is described as follows: microbe, parasite or virus in culture. It counts as cell-based.
In series [3] the test system is HSV-2. As to the kind of experiment: Virucidal assay. In kind it is cell-based. As to conditions: for viral infectivity: 10 μM of compound.
The subject of series [4] is HSV-2. As to the kind of experiment: Viral yield reduction, post treatment. The conditions noted are these: Human alphaherpesvirus 2.
Series [5] in a line: Cell viability MTS assay, conditions of the IAV assay. As to conditions: dog, MDCK cells. It counts as cell-based, Canine. As for the experimental part: Cell viability was measured using the MTS [3- (4,5-dimethylthiazol-2-yl)-5- (3 carboxy methoxy phenyl)-2-(4-sulfophenyl)-2H-tetrazolium] assay. Cell cultures were seeded in 96-well plates and were incubated with different concentrations of compounds in duplicate under the same experimental conditions described for the antiviral assays, (i.e. if the incubation time of the compound on cells was carried for 2 hours and then the evaluation of the antiviral activity was done 72h later, the same timing was used for the cytotoxicity assays, in order to exclude any toxicity effect in the antiviral evaluation). Cell viability was determined using the CellTiter 96 Proliferation Assay Kit (Promega, Madison, WI, USA) according to the manufacturer's instructions. Absorbances were measured using a Microplate Reader (Model 680, BIORAD) at 490 nm. The effect on cell viability at different concentrations of the compound was expressed as a percentage, by comparing absorbances of treated cells with those of cells incubated with culture medium and equal volumes of vehicle. The 50% cytotoxic concentrations (CC50) and 95% confidence intervals (CIs) were determined using Prism software (Graph-Pad Software, San Diego, CA). For compound 9d a continuous incubation of 1, 2, 3 and 4 days on Vero cells was carried in order to evaluate the toxicity after long exposure the results are shown in S1 Fig and Fig 3.

Another series has as its system HSV-1. The series is described as follows: HSV-1 plaquing efficiency assay. It counts as cell-based.
The subject of a further series is Ad5. The series is described as follows: Ad5 inhibition assay on HeLa cells. In kind it is cell-based, Adenovirus 5. The protocol:
as §2

A further series is described as follows: in vitro. The conditions noted are these: African green monkey.
The test system of another series is RSV. The series is described as follows: RSV inhibition assay on Hep-2 cells. As to conditions: human respiratory syncytial virus. It counts as cell-based, RSV strain A2. As for the experimental part: HeP-2 cells were pre-plated in a 96-well plate. […] 72 h later cells were fixed and subjected to specific immunostaining using an RSV monoclonal antibody (Ab35958; Abcam, Cambridge, United Kingdom) in order to visualize syncytia.

The nature of series [6]: Cell viability MTS assay, conditions of the HPV-16 and Ad5 assays. It counts as cell-based. The conditions noted are these: human, HeLa cells; conditions of HPV-16 assay. The protocol:
as §1, with “vehicle.” for “vehicle. The 50% cytotoxic concentrations (CC50) and 95% confidence intervals (CIs) were determined using Prism software (Graph-Pad Software, San Diego, CA). For compound 9d a continuous incubation of 1, 2, 3 and 4 days on Vero cells was carried in order to evaluate the toxicity after long exposure the results are shown in S1 Fig and Fig 3.”
as §2

The test system of series [7] is HSV-2. As to the kind of experiment: Time of addition: pretreatment of cells before HSV-2 infection. In kind it is cell-based. As to conditions: compound on cells 2 h before infection, then removed. As for the experimental part:
We performed assays aimed at better understanding the mechanism of action. In the pretreatment assay compound 9d was added on cells before the virus in order to determine if the antiviral activity was due to an interaction with the cells. Moreover, an assay was conducted adding virus and compound on cells without the preincubation performed in previous assays.
Fig 4 Time of addition assays. Compound 9d was added on cells 2 h before infection (PRE-TREATMENT CELLS) and subsequently the inocula were removed and cells were infected or compound and virus were added simultaneously on cells (DURING INFECTION) or after 1 h pre-incubation between the virus and the compound (PRE-TREATMENT VIRUS). Cells were fixed and stained 24 h later and plaques were counted.
Pretreatment: cells were pretreated for 2 h at 37°C with increasing concentrations of compounds, the inocula were then removed, cells washed and HSV-2 was added on cells for 2 h at 37°C. Subsequently the same protocol described above was followed.

Experimental for IAV H1N1: MDCK cells were pre-plated in 96-well plates. The following day, increasing concentrations of compounds were mixed with IAV (MOI 0.05) and incubated for 1 h at 37°C. The mixtures were subsequently added to the cells for 1 h at 37°C, after a washout cells were overlaid with medium for 16 h at 37°C. Cells were then fixed and subjected to specific immunostaining using a Flu A monoclonal antibody (Merck 5001) in order to visualize infected cells. Percentages of infection were calculated by comparing numbers of infected cells in treated and untreated wells.

On to `CC(C)c1ccc(CCN2C(=O)/C(=C/c3ccc(-c4ccc(C(=O)O)c(O)c4)o3)SC2=S)cc1` [Compound 9d, (Z)-2-hydroxy-4-(5-((3-(4-isopropylphenethyl)-4-oxo-2-thioxothiazolidin-5-ylidene)methyl)furan-2-yl)benzoic acid], for which the EC50 was determined as 66.1 nM with IAV H1N1 (read-out: EC50 (95% C.I.)); 1.6 nM in [2] (Human alphaherpesvirus 2, read-out: EC50 (95% C.I.)); 37.3 nM with HSV-2 [3] (Human alphaherpesvirus 2, virucidal assay, 1h of exposure, 10^5 pfu HSV-2); 33.9 nM in the series with HSV-2 [4]; 2.18 nM with HSV-1 (Human alphaherpesvirus 1, read-out: EC50 (95% C.I.)); 54.8 nM in the series on RSV (read-out: EC50 (95% C.I.)). Besides, the EC90 with IAV H1N1 (read-out: EC90 (95% C.I.)) amounted to 301 nM; in series [2] (Human alphaherpesvirus 2, read-out: EC90 (95% C.I.)), 24.3 nM; with HSV-1 (Human alphaherpesvirus 1, read-out: EC90 (95% C.I.)) it was 35.1 nM; in the series with RSV (read-out: EC90 (95% C.I.)) it was 221 nM. The CC50 at 1 h in [1] is 156000 nM; in series [5] it was 136000 nM. In addition, the “antiviral activity against non-enveloped virus” value in the series with HPV-16 and in the series with Ad5 was “inactive” in each case. Also, the viral infectivity entry is on record as “decreased” in the series on HSV-2 [3] (15' post treatment) and “completely abrogated” in the series with HSV-2 [3] (from 30' on). For the same compound, in the series with HSV-2 [3] (1h incubation, then diluted for additional 1, 2, 3 or 4 hours), the “infectivity after dilution in drug free medium” value is “not regained”. The compound further had a CC50 in “in vitro” of 24800 nM. In series [6], this compound returned a CC50 at 72 h of 94200 nM. Moreover, the “antiviral activity in pre-treatment assay” value with HSV-2 [7] was “not active”.

In general, EC50 refers to the concentration that produces a half-maximal response. By EC90 is commonly meant the point of the concentration-response curve where the effect stands at 90%.
